From patent US8343475B2, “Small cationic antimicrobial peptides” (priority 2006, dated 2013)
≈ marks a conversion by molar mass, not a printed value. Like-named read-outs stand apart in the source and are kept apart here. Residues, ends and D or L forms follow the SMILES beside them.

Columns and labels:
Assay type in all cases: cell-based
[1] = test system: Pseudomonas aeruginosa strain H1001 fliC::luxCDABE; assay: Luminescence (lux) killing assay, peptides cleaved from cellulose support; set-up: key: − for minimal or no activity; + for weak activity; +/++ for intermediate activity; ++ strong activity; settings: P. aeruginosa strain H1001, 4 hours incubation, luminescence as indicator
Description: Assay for the cleaved peptides from cellulose support. The peptides were cleaved from the dried membrane in an ammonia atmosphere overnight, resulting in free peptides with an amidated C-terminus. The free peptides contained two β-alanines at the C-terminus, in addition to being amidated due to the linker between the cellulose membrane and the peptide sequence. The peptide spots were punched out and transferred in a 96-well microtiter plate. Serial dilutions were carried out from the membrane spots. Four rows were filled with four controls including 2×Bac2A and 2× an unrelated peptide. The other eight rows were used for serial dilution steps of the peptide variants. An overnight culture of Pseudomonas aeruginosa strain H1001 was diluted 1:500 using either LB media or 100 mM Tris buffer pH 7.3, 20 mM glucose and was added to the wells (100 μl/well) containing the peptide spots. In all other wells 50 μl were added. The microtiter plate was incubated for 30 min at 37° C. to release the peptides from the membrane. Subsequently, a dilution series were performed and the plate was incubated at 37° C. The luminescence produced by the FMN dependent luciferase system were detected in a time dependent manner using a Tecan Spectra Fluor plus.
(§1) Strains. For the killing assay a mini-Tn5-lux mutant in Pseudomonas aeruginosa H103 was used. The strain is called H1001 and contains a fliC::luxCDABE transcriptional fusion resulting in constitutive expression of luciferase. The bacterial strains used for the antimicrobial activity assays included Escherichia coli UB1005 (F-, nalA37, metB1), a wild-type Salmonella enterica ssp. typhimurium (S. typhimurium), wild-type Pseudomonas aeruginosa PAO1 strain H103, Enterococcus faecalis ATCC29212, Staphylococcus aureus ATCC25923, and a clinical isolate of Staphylococcus epidermidis obtained from Dr. D. Speert (Department of Medicine, University of British Columbia). Antifungal activity was tested using a lab isolate of Candida albicans obtained from Dr. B. Dill (Department of Microbiology and Immunology, University of British Columbia).
Peptide synthesis on cellulose is a very effective and inexpensive way to investigate many different peptide variants for one particular activity. However, one of the problems of this technique is the low peptide amount synthesized on the membrane, about 280 nmol per cm^2. An average peptide spot used for the experiments presented is about 0.3 cm^2. Therefore, an assay had to be developed that was sensitive enough to show activity with this amount of peptides. P. aeruginosa H1001 has a luciferase gene cassette incorporated into the bacterial chromosome in a gene fliC (involved in flagellar biosynthesis) that is constitutively expressed. It will thus produce light if FMN is present. When this strain is killed, e.g. by peptides, the amount of light produced will decrease due to a decrease in FMN levels in the killed cells. This action can thus be monitored by detecting luminescence in a microtiter plate luminescence reader over time. The volume and amount of cells per well were optimized for this assay. After screening, we were able to monitor the killing action with small amounts of the parent peptide Bac2A (2 μg/ml of free peptide).

[2] = test system: clinical isolate of Staphylococcus epidermidis; settings: clinical isolate of
Description: (§2) Minimal inhibitory concentration (MIC) determination. The MIC of the peptides were measured using a modified broth microdilution method in Mueller Hinton (MH) medium (Wu M, Hancock R E W. 1999. Interaction of the cyclic antimicrobial cationic peptide bactenecin with the outer and cytoplasmic membrane. J Biol Chem 274, 29-35). Briefly, the peptides were dissolved and stored in glass vials. The assay was performed in sterile 96-well polypropylene microtitre plates were used. Serial dilutions of the peptides to be assayed were performed in 0.01% acetic acid (Fisher) containing 0.2% bovine serum albumin (Boehringer Mannheim GmbH) at 10× the desired final concentration. Ten microlitres of the 10× peptides were added to each well of a 96-well polypropylene plate containing 90 μl of MH media per well. Bacteria were added to the plate from an overnight culture at 2-7×10^5 colony forming units/ml and incubated over night at 37° C. The MIC was taken as the concentration at which no growth was observed.
as §1

[3] = test system: wild-type Salmonella enterica ssp. typhimurium
Description: as §2, §1

[4] = test system: Enterococcus faecalis ATCC29212; settings: ATCC29212
Description: as §2, §1

Escherichia coli UB1005 = test system: Escherichia coli UB1005
Description: as §2, §1

[5] = test system: Staphylococcus aureus ATCC25923; settings: ATCC25923
Description: as §2, §1

[6] = test system: lab isolate of Candida albicans; settings: lab isolate of
Description: as §2, §1

[7] = test system: Pseudomonas aeruginosa PAO1 strain H103; settings: PAO1
Description: The biological activity of the peptides can be determined by standard methods known to those of skill in the art, such as “minimal inhibitory concentration (MIC)” assay described in the present examples, whereby the lowest concentration at which no change in OD is observed for a given period of time is recorded as MIC.
as §2, §1

KFKFFKFRK [HH992]
Antimicrobial activity [1]: +

KWPWWPWRR [HH983]
Antimicrobial activity [1]: +/++

RWWKWRR [HH1002]
Antimicrobial activity [1]: ++

KWWKWKK [HH1008]
Antimicrobial activity [1]: +

PWWKWRR [HH999]
Antimicrobial activity [1]: +

KWRWWKKRR [HH986]
Antimicrobial activity [1]: ++

CC[C@H](C)[C@H](NC(=O)[C@H](CCCNC(=N)N)NC(=O)[C@H](CC(C)C)NC(=O)[C@H](CCCNC(=N)N)NC(=O)[C@@H](N)C(C)C)C(=O)N[C@@H](CCCNC(=N)N)C(=O)N[C@H](C(=O)N[C@@H](C)C(=O)N[C@H](C(=O)N[C@H](C(=O)N[C@@H](CCCNC(=N)N)C(=O)N[C@@H](CCCCN)C(N)=O)[C@@H](C)CC)C(C)C)C(C)C [HH8, VRLRIRVAVIRK] (H-VRLRIRVAVIRK-NH2)
MIC S. epi. [2]: 1.6 µg/mL (≈ 1.08 µM)
MIC S. typhi [3]: 6 µg/mL (≈ 4.06 µM)
MIC E. faecalis [4]: 12 µg/mL (≈ 8.12 µM)
MIC E. coli (Escherichia coli UB1005; UB1005): 3 µg/mL (≈ 2.03 µM)
MIC S. aureus [5]: 6 µg/mL (≈ 4.06 µM)
MIC C. albicans [6]: 3 µg/mL (≈ 2.03 µM)
MIC P. aerug [7]: 6 µg/mL (≈ 4.06 µM)

KFRWWPWRR [HH984]
Antimicrobial activity [1]: ++

CC[C@H](C)[C@H](NC(=O)[C@H](Cc1c[nH]c2ccccc12)NC(=O)[C@H](CC(C)C)NC(=O)[C@H](CCCNC(=N)N)NC(=O)[C@@H](N)C(C)C)C(=O)N[C@@H](CCCNC(=N)N)C(=O)N[C@H](C(=O)N[C@@H](C)C(=O)N[C@H](C(=O)N[C@H](C(=O)N[C@@H](CCCNC(=N)N)C(=O)N[C@@H](C)C(N)=O)[C@@H](C)CC)C(C)C)C(C)C [HH5, VRLWIRVAVIRA] (H-VRLWIRVAVIRA-NH2)
MIC S. epi. [2]: 3 µg/mL (≈ 2.07 µM)
MIC S. typhi [3]: >50 µg/mL
MIC E. faecalis [4]: 25 µg/mL (≈ 17.2 µM)
MIC E. coli (Escherichia coli UB1005; UB1005): 6 µg/mL (≈ 4.14 µM)
MIC S. aureus [5]: 50 µg/mL (≈ 34.5 µM)
MIC C. albicans [6]: 50 µg/mL (≈ 34.5 µM)
MIC P. aerug [7]: >50 µg/mL

KFRWWKWRR [HH985]
Antimicrobial activity [1]: ++

PWKPWRR [HH998]
Antimicrobial activity [1]: −

CC[C@H](C)[C@H](NC(=O)[C@H](CCCNC(=N)N)NC(=O)[C@H](Cc1ccccc1)NC(=O)[C@H](CCCNC(=N)N)NC(=O)[C@@H](N)CCCCN)C(=O)N[C@@H](CCCNC(=N)N)C(=O)N[C@H](C(=O)N[C@@H](CCCNC(=N)N)C(=O)N[C@H](C(=O)N[C@H](C(=O)N[C@@H](CCCNC(=N)N)C(=O)N[C@@H](CCCCN)C(N)=O)[C@@H](C)CC)C(C)C)C(C)C [HH15, KRFRIRVRVIRK] (H-KRFRIRVRVIRK-NH2)
MIC S. epi. [2]: 0.8 µg/mL (≈ 0.492 µM)
MIC S. typhi [3]: 3 µg/mL (≈ 1.84 µM)
MIC E. faecalis [4]: 25 µg/mL (≈ 15.4 µM)
MIC E. coli (Escherichia coli UB1005; UB1005): 1.6 µg/mL (≈ 0.984 µM)
MIC S. aureus [5]: 6 µg/mL (≈ 3.69 µM)
MIC C. albicans [6]: 12 µg/mL (≈ 7.38 µM)
MIC P. aerug [7]: 6 µg/mL (≈ 3.69 µM)

CC[C@H](C)[C@H](NC(=O)[C@H](CCCNC(=N)N)NC(=O)[C@H](Cc1c[nH]c2ccccc12)NC(=O)[C@H](CCCNC(=N)N)NC(=O)[C@@H](N)CCCCN)C(=O)N[C@@H](CCCNC(=N)N)C(=O)N[C@H](C(=O)N[C@@H](CCCNC(=N)N)C(=O)N[C@H](C(=O)N[C@H](C(=O)N[C@@H](CCCNC(=N)N)C(=O)N[C@@H](CCCCN)C(N)=O)[C@@H](C)CC)C(C)C)C(C)C [HH16, KRWRIRVRVIRK] (H-KRWRIRVRVIRK-NH2)
MIC S. epi. [2]: 0.8 µg/mL (≈ 0.48 µM)
MIC S. typhi [3]: 3 µg/mL (≈ 1.8 µM)
MIC E. faecalis [4]: 12 µg/mL (≈ 7.21 µM)
MIC E. coli (Escherichia coli UB1005; UB1005): 1.6 µg/mL (≈ 0.961 µM)
MIC S. aureus [5]: 3 µg/mL (≈ 1.8 µM)
MIC C. albicans [6]: 6 µg/mL (≈ 3.6 µM)
MIC P. aerug [7]: 3 µg/mL (≈ 1.8 µM)

CC[C@H](C)[C@H](NC(=O)[C@H](CCCNC(=N)N)NC(=O)[C@H](CC(C)C)NC(=O)[C@H](CCC(N)=O)NC(=O)[C@@H](N)C(C)C)C(=O)N[C@@H](CCCNC(=N)N)C(=O)N[C@H](C(=O)N[C@@H](C)C(=O)N[C@H](C(=O)N[C@H](C(=O)N[C@@H](CCCNC(=N)N)C(=O)N[C@@H](C)C(N)=O)[C@@H](C)CC)C(C)C)C(C)C [HH2, VQLRIRVAVIRA] (H-VQLRIRVAVIRA-NH2)
MIC S. epi. [2]: 12 µg/mL (≈ 8.62 µM)
MIC S. typhi [3]: 12 µg/mL (≈ 8.62 µM)
MIC E. faecalis [4]: 50 µg/mL (≈ 35.9 µM)
MIC E. coli (Escherichia coli UB1005; UB1005): 6 µg/mL (≈ 4.31 µM)
MIC S. aureus [5]: 50 µg/mL (≈ 35.9 µM)
MIC C. albicans [6]: 25 µg/mL (≈ 17.9 µM)
MIC P. aerug [7]: >50 µg/mL

KKPWWPWRR [HH977]
Antimicrobial activity [1]: +

PWWPWRR [HH993]
Antimicrobial activity [1]: +

KFKFFKYRK [HH991]
Antimicrobial activity [1]: +

CC(C)C[C@H](NC(=O)[C@@H](N)Cc1ccccc1)C(=O)N1CCC[C@H]1C(=O)N[C@@H](CCCCN)C(=O)N[C@@H](CCCCN)C(=O)N[C@@H](Cc1ccccc1)C(=O)N[C@@H](CCCNC(=N)N)C(=O)N[C@@H](Cc1c[nH]c2ccccc12)C(=O)N[C@@H](Cc1c[nH]c2ccccc12)C(=O)N[C@@H](CCCCN)C(=O)N[C@@H](Cc1ccc(O)cc1)C(=O)N[C@@H](CCCNC(=N)N)C(=O)N[C@@H](CCCCN)C(N)=O [HH972, FLPKKFRWWKYRK] (H-FLPKKFRWWKYRK-NH2; N-terminus assumed)
MIC S. epi. [2]: 8 µg/mL (≈ 4.25 µM)
MIC S. typhi [3]: 31 µg/mL (≈ 16.5 µM)
MIC E. faecalis [4]: >125 µg/mL
MIC E. coli (Escherichia coli UB1005; indolicidin substitution variants (Table 4)): 16 µg/mL (≈ 8.5 µM)
MIC S. aureus [5]: 31 µg/mL (≈ 16.5 µM)
MIC C. albicans [6]: 31 µg/mL (≈ 16.5 µM)
MIC P. aerug [7]: 31 µg/mL (≈ 16.5 µM)

PKWPWRR [HH997]
Antimicrobial activity [1]: −

KWPWWPWRK [HH975]
Antimicrobial activity [1]: +

KFKWWKYRK [HH990]
Antimicrobial activity [1]: ++

KWRWWPWRR [HH978]
Antimicrobial activity [1]: ++

KKKWWKWRR [HH987]
Antimicrobial activity [1]: ++

PWWKWRR [HH995]
Antimicrobial activity [1]: +/++

RWWPWRR [HH996]
Antimicrobial activity [1]: +

RFWKWRR [HH1004]
Antimicrobial activity [1]: +

KFPWWPWRR [HH976]
Antimicrobial activity [1]: +

KWPWWKWRR [HH981]
Antimicrobial activity [1]: ++

KWWPWRR [HH994]
Antimicrobial activity [1]: +

KWPWWPKRR [HH982]
Antimicrobial activity [1]: +

PWWPWRK [HH1001]
Antimicrobial activity [1]: −

KFHWWIWRK [HH988]
Antimicrobial activity [1]: ++

KWPWKPWRR [HH980]
Antimicrobial activity [1]: +

KFHWWKWRK [HH989]
Antimicrobial activity [1]: ++

KFFKFKK [HH1009]
Antimicrobial activity [1]: −

PWWPKRR [HH1000]
Antimicrobial activity [1]: −

RWWKWRK [HH1003]
Antimicrobial activity [1]: +/++

KWPKWPWRR [HH979]
Antimicrobial activity [1]: +

RWWIYRR [HH1006]
Antimicrobial activity [1]: +

RWWIKRR [HH1005]
Antimicrobial activity [1]: +/++

RFFKFRR [HH1007]
Antimicrobial activity [1]: −
